Results taken from US12109327B2, “Scaffolds from self-assembling tetrapeptides support 3D spreading, osteogenic differentiation and angiogenesis of mesenchymal stem cells” (KING ABDULLAH UNIVERSITY OF SCIENCE AND TECHNOLOGY, priority 2020, dated 2024).
Non-standard residues stand in square brackets, D forms with d. Cha = N[C@@H](CC1CCCCC1)C(=O)O

Tests used:
[1] = Oscillatory rheological test of peptide hydrogel stiffness (storage modulus G′); format: physicochemical; details: for Storage modulus: 1 rad/s, 0.1% strain
Experimental: Therefore, in one embodiment, the mechanical stiffness of each peptide hydrogel is assessed by the storage modulus (G′) at different concentrations.
The oscillatory rheological test was performed to determine the mechanical properties of the peptide hydrogels. The peptide hydrogels were measured on a TA Ares G2 rheometer with an 8 mm parallel-plate geometry and a 1.5 mm gap distance at a temperature of 22° C. All of the hydrogels were made inside a Sigmacote®-coated glass ring with 9 mm inner diameter 19 h prior to measurement. Six replicates with a volume of 150 μL were prepared for each sample. […]

[2] = Vial inversion test: gelation time and critical gelation concentration; format: physicochemical; details: for critical gelation concentration (CGC): aqueous solution, 1× PBS
Experimental: In one embodiment, an instant hydrogel formation can be observed when PBS buffer is added to the peptide solution. In one embodiment, the gelation time is determined using a vial inversion test performed at different peptide concentrations in 1×PBS to meet physiological conditions. FIG. 13 compares the gelation time of IVFK and IVZK at different concentration.
The lyophilized peptide powders were dissolved in Milli-Q® water by vortexing into a clear solution at room temperature. Then, 10× phosphate-buffered saline (PBS) was added to the aqueous peptide solution at a final volume ratio of peptide solution to 10×PBS of 9:1. The vial inversion test was performed with different peptide concentrations to find the critical gelation concentration (CGC). To study the spatial structure of the peptide solution during the assembly process, two-dimensional (2D) NMR was performed using Bruker Avance III 600 MHz. Furthermore, scanning electron microscopy (SEM) was performed to visualize the morphology of the self-assembled nanofibers.

BM-MSCs [3] = experiment: Alamar Blue cell viability assay; format: cell-based, human; details: compared to controls (2D and Matrigel)
Experimental: In one embodiment, the hydrogels are screened for biocompatibility, cell attachment, and proliferation. Different concentrations of the peptides are tested for their biocompatibility of the cells within the constructs. […] Control is the cells incubated for 48 h without peptides.
The hBM-MSCs were cultured in T75 flasks and incubated in a CO2 incubator maintained at 37° ° C. with 5% CO2. Culture media were replaced every 2-3 days until the cells reached 80% confluency. Confluent cells were trypsinized and subcultured, and cells at passage 3-6 were used for the study. For the 3D culture, different peptides were sterilized by exposure to UV light for 30 min. Then, 200 μL of 3D constructs in the 48-well plate was formed by mixing the peptide solution (IVZK=3 mg/mL (5.42 mM); IVFK=4 mg/mL (7.31 mM)) with 40,000 cells suspended in 2×PBS. Culture plates were incubated for 5 min at 37° C., and the complete medium was added carefully to the culture plates. […] The morphology, cell proliferation, and mineralization of the cells in each scaffold were analyzed and compared. […]
A volume of 10 μL of Alamar blue stock solution was added to 100 μL of media in each well. […] The fluorescence was measured at an excitation wavelength of 530 nm, and the emission at 590 nm. The viability percentage was calculated against the control (2D).

BM-MSCs [4] = experiment: Alizarin red staining of mineralization; format: cell-based, human
Description: Alizarin red staining (ARS) is used to detect calcium deposition. The BM-MSCs cultured in the different scaffolds in the osteogenic medium are stained by Alizarin red to confirm the mineralization process during osteogenic differentiation (FIGS. 4b and S11b). […] The scale bar in FIGS. 31 and 32 is 100 μm. […] This indicates the presence of calcium deposits.
After 14 days of culture, the media were removed and the cells were washed three times with PBS, fixed with 4% paraformaldehyde, and incubated for 15 min at room temperature.
After 14 days of culture, the media was removed and then, the cells were washed three times with PBS and then fixed with 4% paraformaldehyde and the cells incubated for 15 minutes at room temperature. Then, the cells were washed three times with Milli-Q® water. Then the Milli-Q® water was removed and 1 mL of 40 mM Alizarin Red Staining (pH=4.2) was added to each well. The scaffolds were incubated at room temperature for 20-30 min with gentle shaking. […] For the quantification of Alizarin Red Staining, 100 μL of 10% acetic acid was added to each well in a 48-well plate and incubated at room temperature for 30 minutes with gentle shaking. […] Finally, 50 μL of each tube was transferred to a 96-well plate, and the absorbance at 405 nm was read with a plate reader (PHERAstar® FS, Germany)

BM-MSCs [5] = experiment: Osteocalcin immunostaining, confocal microscopy; format: cell-based, human
Description: (§1) In one embodiment, the BM-MSCs differentiate to the osteogenic lineage. The expression of osteocalcin is stained and imaged after 3 weeks of culture in osteogenic medium using confocal microscopy, as shown in FIG. 33. FIG. 33 is confocal images showing the expression of osteocalcin stained in green, and the cell nuclei stained in blue using DAPI. The scale bar in FIG. 33 is 100 μm. […] Additionally, the levels of alkaline phosphatase (ALP), an early osteogenic marker expressed by osteoblast cells, are also measured to confirm the commitment of BM-MSCs toward the osteogenic lineage. […] Furthermore, the ALP activity increased with time during the initial 2 weeks as an indicator of osteogenic differentiation. In FIG. 34, * means p<0.05, indicating statistical significance.
Immunostaining was performed after each time point of culture. Briefly, cells were fixed by 4% paraformaldehyde solution for 30 min and incubated in a cold cytoskeleton buffer (3 mM MgCl2, 300 mM sucrose, and 0.5% Triton X-100 in PBS solution) for 5 min to permeabilize the membranes of the cells. The permeabilized cells were incubated in a blocking buffer solution, 5% fetal bovine serum (FBS), 0.1% Tween-20, and 0.02% […] in PBS for 30 min. […]

BM-MSCs [6] = experiment: Alkaline phosphatase (ALP) assay; format: cell-based, human
Description: as §1
Alkaline phosphatase (ALP) was measured after 1 and 2 weeks of culture using an alkaline phosphatase substrate kit. At the end of each culture time, the scaffolds were washed by PBS and cells were lysed using 1% Triton X-100. Then, 80 μL of the cell lysate mixture was added to 50 μL of the para-nitrophenylphosphate (pNPP) substrate (5 mM) and incubated at room temperature for 2 h. The reaction was inhibited by the addition of a stop solution, and the absorbance was measured at 405 nm using a multimode plate reader (PHERAstar® FS, Germany).

BM-MSCs [7] = experiment: Quantitative RT-PCR of osteogenic genes; format: cell-based, human
Experimental: Real-time polymerase chain reaction (PCR) values of the BM-MSC gene expressions of the bone morphogenetic protein (BMP-2) (FIG. 37), bone sialoprotein 2 (IBSP) (FIG. 35), osteopontin (OPN) (FIG. 38), osterix (OSX) (FIG. 39), and RUNX2 (FIG. 36) are evaluated after 30 days of culture. […] In FIGS. 35-39, * mens p<0.05 and ** means p<0.001, indicating statistical significance.
The BM-MSCs were cultured on different scaffolds with an osteogenic medium for 4 weeks. Total RNA was extracted using the TRIzol™ reagent. RNA concentration and purity were measured using a NanoDrop® 8000 spectrophotometer (Thermo Fisher®). Complementary DNA (cDNA) was synthesized using the ImProm-II Reverse Transcription System. Primer sequences were taken from previously published studies and are summarized in below. Relative quantification was performed using the comparative CT (2-ΔΔCT) and normalized against glyceraldehyde 3-phosphate dehydrogenase (GAPDH), which was used as a housekeeping gene to calculate the fold change in gene expression. BM-MSCs on a 2D culture using basal media were used as controls.

HUVECs = experiment: In vitro angiogenesis study; format: cell-based, human
Experimental: When bone deficiency occurs, it often causes blood vessel damage. Blood vessels provide the necessary components to repair the region of bone defects by transferring oxygen and nutrients.^107, 108 In one embodiment, the capability of IVFK and IVZK hydrogels to support angiogenesis is also evaluated using HUVECs and compared with collagen, which is an essential component of the ECM and is known to support the angiogenesis of endothelial cells,^23 because the capillary system is a crucial component in bone regeneration. Viability of HUVECs in IVZK scaffold after culturing for 24 h can be observed the bright field image as shown in FIG. 45 and confocal images as shown in FIG. 46. In FIG. 46, live cells are stained in green by Calcein-AM, while dead cells are stained red by Ethidium homodimer. In FIGS. 45 and 46, the scale bar is 100 μm. Furthermore, the angiogenesis ability of IVZK scaffold is also measured by the vessels junctions (FIG. 48), number of nodes (FIG. 49) and, in total vessels length (FIG. 47) for 5 different microscopic pictures. […] In FIG. 50, the scale bar is 100 μm.
Peptide hydrogel or collagen was placed in a 24-well plate, and human umbilical vein endothelial cells (HUVECs) at 40,000 cells/well were added on top of the peptide gel or collagen. Cells were cultured in endothelial growth media for 24 h. Cells were then investigated using an inverted microscope, and images were analyzed by ImageJ using the Angiogenesis Analyzer.

MSCs = experiment: SEM of cell-matrix interaction; format: cell-based, human; details: after 14 days of culture
Experimental: Scale bars are 5 and 10 μm, in the left and right panels respectively.
SEM was also used to determine the cell-matrix interaction. First, the cells encapsulated in hydrogels were fixed in 2.5% glutaraldehyde for overnight (4° C.) and then washed using PBS. The samples were subsequently incubated in 1% osmium tetroxide for one hour and washed with water. Afterwards, the dehydration was done by immersing them in increasing concentrations of ethanol: 30, 50, 70, 90 and 100%, 15 min each step. Then, the samples were processed in critical point dryer. The dried samples were then mounted and coated with 5 nm Ir thickness.

[8] = hydrogel around 20 kPa (4 mg/mL) versus 50 kPa (8 mg/mL)
[9] = 24 h, versus collagen positive control

In the case of “Ac-Ile-Val-Phe-Lys-NH2 (Ac-IVFK-NH2) [aromatic self-assembling tetrapeptide forming hydrogel scaffold]”, the stiffness ([1]; peptide concentration 4 mg/mL) is reported as “around 20 kPa”, the stiffness ([1]; peptide concentration 8 mg/mL) is reported as ~50 kPa and the Storage modulus ([1]; peptide hydrogel 2 mg/mL) is reported as 0.54 ± 0.06 kPa. The Storage modulus ([1]; peptide hydrogel 3 mg/mL) was 7.03 ± 0.19 kPa, the Storage modulus ([1]; peptide hydrogel 4 mg/mL) was 23.40 ± 0.88 kPa and the Storage modulus ([1]; peptide hydrogel 6 mg/mL) was 35.79 ± 0.95 kPa. The Storage modulus ([1]; peptide hydrogel 8 mg/mL) was 51.79 ± 4.73 kPa, the “critical gelation concentration (CGC)” value [2] was 2 mg/mL and the “cell growth (Alamar Blue)” value (BM-MSCs [3]) was “significant increase in cell growth compared to both controls”. For the same substance, the “calcium content (Alizarin red-S quantification)” value (BM-MSCs [4]; [8]) was “significantly higher calcium content than that at 50 kPa”, the “Alizarin red-S (ARS) staining of mineral deposits” value (BM-MSCs [4]; osteogenic medium, compared to the other scaffolds) was “most intense ARS staining” and the osteocalcin expression (BM-MSCs [5]; 3 weeks in osteogenic medium) was “comparable to those cultured in the collagen control group”. For the same substance, the osteocalcin expression (BM-MSCs [5]; 20 kPa scaffold compared to the others) was “more intense”, the ALP activity (BM-MSCs [6]; after 7 days in osteogenic medium, versus collagen, p<0.05) was “Significantly higher ALP activity” and the ALP release (BM-MSCs [6]; [8]) was “higher ALP release than that at 50 kPa”. For the same substance, the “expression of osteogenic genes OPN and BMP-2” value (BM-MSCs [7]; 20 kPa hydrogel versus 50 kPa scaffold) was “able to support cell differentiation much better than the 50 kPa scaffold”, the “IBSP gene expression level” value (BM-MSCs [7]; after 30 days of culture) was “highest” and the OPN gene expression (BM-MSCs [7]; after 30 days of culture) was “upregulated”. For the same substance, the OSX expression level (BM-MSCs [7]; after 30 days of culture) was “low”, the Runx2 gene expression (BM-MSCs [7]; after 30 days of culture) was “higher” and the junctions (HUVECs; [9]) was “no significant difference”. For the same substance, the nodes (HUVECs; [9]) was “no significant difference”, the “total length of tubes” value (HUVECs; [9]) was “no significant difference” and the “network formation of HUVECs” value (HUVECs; after 24 h of culture) was “forms dense network structures”. The “cell morphology by SEM” value (MSCs) was “elongated spindlelike morphology”.
With “Ac-Ile-Val-Cha-Lys-NH2 (Ac-IV[Cha]K-NH2; not fully specified; printed as Ac-Ile-Val-Cha-Lys-NH2) [IVZK, nonaromatic self-assembling tetrapeptide (Z = cyclohexylalanine) forming hydrogel scaffold]” the “G′ value, IVZK versus IVFK” value ([1]; at the same concentration) was “higher G′ value compared to IVFK”, the Storage modulus ([1]; peptide hydrogel 2 mg/mL) was 10.00 ± 0.12 kPa and the Storage modulus ([1]; peptide hydrogel 3 mg/mL) was 17.21 ± 1.38 kPa. The Storage modulus ([1]; peptide hydrogel 4 mg/mL) was 29.77 ± 1.19 kPa, the Storage modulus ([1]; peptide hydrogel 6 mg/mL) was 43.03 ± 2.81 kPa and the Storage modulus ([1]; peptide hydrogel 8 mg/mL) was 75.21 ± 4.08 kPa. For the same substance, the “critical gelation concentration (CGC)” value [2] was 2 mg/mL, the gelation time ([2]; different peptide concentrations in 1×PBS, IVZK versus IVFK) was “less time to form the hydrogel, compared to IVFK” and the OPN gene expression (BM-MSCs [7]; after 30 days of culture) was “downregulated”. The “cell morphology by SEM” value (MSCs) was “elongated spindlelike morphology”.
